Here are results for one compound from PMC10938434, “Design, Synthesis, and Biological Effect Studies of Novel Benzofuran–Thiazolylhydrazone Derivatives as Monoamine Oxidase Inhibitors” (ACS Omega, 2024).

Values joined by “and” are separate entries in the source; they are usually repeats but may differ in a detail not shown here. Equal entries are not always repeated. Where only a bound is given, the exact number is not on record here.

For one series, the target named is T1, MAO-A enzyme (Homo sapiens, UniProt P21397).
T1 sequence (P21397 1-527): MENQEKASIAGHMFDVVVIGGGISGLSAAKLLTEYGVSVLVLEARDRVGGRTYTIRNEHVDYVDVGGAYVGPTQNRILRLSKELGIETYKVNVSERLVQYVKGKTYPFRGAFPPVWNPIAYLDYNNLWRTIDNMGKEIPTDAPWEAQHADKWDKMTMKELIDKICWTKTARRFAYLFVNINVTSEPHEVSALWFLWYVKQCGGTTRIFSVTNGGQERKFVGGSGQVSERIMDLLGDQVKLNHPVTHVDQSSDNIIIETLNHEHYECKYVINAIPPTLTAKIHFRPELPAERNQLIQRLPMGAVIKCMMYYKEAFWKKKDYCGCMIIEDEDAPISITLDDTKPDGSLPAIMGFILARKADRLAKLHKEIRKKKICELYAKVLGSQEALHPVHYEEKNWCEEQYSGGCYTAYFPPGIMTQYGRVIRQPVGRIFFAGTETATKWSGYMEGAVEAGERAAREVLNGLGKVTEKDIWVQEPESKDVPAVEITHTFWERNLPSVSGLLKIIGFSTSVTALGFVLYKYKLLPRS
In words: MAO-A enzyme inhibition, fluorometric method. The class given is biochemical. The text has this: (§1) Inhibition profiles of the synthesized compounds on MAO enzymes were investigated by the fluorometric method.
(§2) In every step of the method, distilled water obtained from a Millipor, a Milli-Q Synthesis A10 purification device, was used. Care was taken in preparing all of the solutions used fresh and to consume them within 1 week after preparation. A BioTek-Precision Power robotic pipetting system was used in the processes of separating the solutions prepared in the enzyme inhibition study, applying the test compounds to 96-well plates, and adding the enzyme–substrate solutions.

For the next series, the target named is T2, MAO-B enzyme (Homo sapiens, UniProt P27338).
T2 sequence (P27338 1-520): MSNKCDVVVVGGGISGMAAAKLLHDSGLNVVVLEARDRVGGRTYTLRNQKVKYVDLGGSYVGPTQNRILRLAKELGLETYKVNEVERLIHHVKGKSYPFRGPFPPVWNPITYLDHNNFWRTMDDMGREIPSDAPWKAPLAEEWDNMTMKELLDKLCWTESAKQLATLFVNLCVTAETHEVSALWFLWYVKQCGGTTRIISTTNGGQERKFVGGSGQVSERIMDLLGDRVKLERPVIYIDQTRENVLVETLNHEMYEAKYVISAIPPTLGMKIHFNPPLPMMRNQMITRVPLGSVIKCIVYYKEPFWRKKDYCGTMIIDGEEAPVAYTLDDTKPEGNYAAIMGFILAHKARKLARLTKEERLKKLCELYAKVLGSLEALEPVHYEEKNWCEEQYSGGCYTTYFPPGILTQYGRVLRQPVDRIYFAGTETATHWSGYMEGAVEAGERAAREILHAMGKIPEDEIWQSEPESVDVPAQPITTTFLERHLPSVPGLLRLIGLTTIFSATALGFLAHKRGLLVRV
In words: MAO-B enzyme inhibition, fluorometric method. The class given is biochemical.
Text: as §1
as §2, with “solutions. The creation, monitoring, and spectrophotometric measurements of the enzyme protocol were performed on a BioTek-Synergy H1 microplate reader.[41],[42]” for “solutions.”

Series [1] in a line: In vitro BBB permeability assay (PAMPA). It counts as in vitro ADME. On the technique in general: PAMPA measures passive passage across an artificial lipid membrane.
The next series is described as follows: Cytotoxicity test (MTT). The class given is cell-based, mouse. To be noted: mouse, NIH3T3 mouse embryo fibroblast cells, 24 h. On the procedure: (§3) Just as important as the effectiveness of a compound is its side effect profile. For this purpose, cytotoxic effect tests of compound 2l were carried out. NIH3T3 (healthy mouse fibroblast cells) was used as the healthy cell in the experimental procedure.
(§4) 3-(4,5-Dimethylthiazol-2-yl)-2,5-diphenyl tetrazolium bromide (MTT) stock solution (5 mg mL^–1) was prepared by dissolving in phosphate buffer (PBS). The viable cell count of NIH/3T3 (mouse healthy embryo fibroblast cells) cells grown in appropriate medium and culture medium was characterized, and each cell line was seeded in 96-well plates with 3000 cells in each well, and the cells were incubated for 24 h for their adhesion. […] At the end of the incubation, the medium in each well was removed and 100 μL of DMSO was added as a solvent and the absorbance values were read in an enzyme-linked immunosorbent assay (ELISA) device (Bio Tek Cytation3 multimode microplate reader) at a wavelength of 540 nm, with eight wells in each group. […] The obtained absorbance values give the metabolic activities of the cells, and these values are associated with the number of living cells. The results are determined as % inhibition values according to the formula given, and IC50 values are calculated from these values by using the Excel program.[52]−[54]

In series [2] the test system is NIH3T3 (healthy mouse fibroblast cells). In words: Cytotoxicity test (MTT). The class given is cell-based. Here is the method:
as §3, §4

Usually IC50 stands for the midpoint of a concentration-inhibition curve. As usually defined, the inhibition is the change of the read-out against control, counted positive when it falls.

Consider `Clc1ccc(-c2csc(NN=Cc3cc4ccccc4o3)n2)c(Cl)c1` [2l, 2-(2-(Benzofuran-2-ylmethylene)hydrazinyl)-4-(2,4-dichlorophenyl)thiazole], for which the IC50 against MAO-A enzyme (10^–3–10^–9 M concentrations) is 73 nM and 70 nM; at MAO-B enzyme it was 750 ± 30 nM. Moreover, on MAO-A enzyme (MAO isoform preferentially inhibited), the selectivity result is on record as “MAO-A”. The “SI* selectivity index” value at MAO-A enzyme (SI = IC50MAO-B/IC50 MAO-A) is more than 10.30. In addition, the inhibition at 1000 µM on MAO-A enzyme (read-out: MAO-A % inhibition 10^–3 M) worked out at 94 ± 1.65%; at MAO-B enzyme (10^–3 M), 86.6 ± 1.29%. Moreover, at MAO-A enzyme (read-out: MAO-A % inhibition 10^–4 M), the inhibition at 100 µM amounted to 91.4 ± 1.36%. In series [1], the “BBB permeability (in words)” value is “high BBB permeability”. The IC50 at 24 h in the series “Cytotoxicity test (MTT)” was more than 100000 nM. In addition, the cytotoxic effect result in series [2] is listed as “nontoxic”.
